Results: the OligoGym collection
These antisense oligonucleotides have a phosphorothioate backbone; sugars and methylation of C are not fully specified.

Legend:
Details in all cases: ASO
[1] = molecular target: RIPK2
[2] = molecular target: NCOA2
[3] = molecular target: NCOA1
[4] = molecular target: MAP4K4
[5] = molecular target: CHUK
Further: test concentration or dose not given here.

| Sequence | remaining target (mRNA or protein) (fraction of control) [2] | remaining target (mRNA or protein) (fraction of control) [4] | other results |
| --- | --- | --- | --- |
| AAAACAGTCACTTACATGCT |  |  | remaining target (mRNA or protein) (fraction of control) [1]: 0.52 |
| AAAACTGACTGGGTGGGA | ≥ 1 |  |  |
| AAAAGTGGTTATTCAGTC |  |  | remaining target (mRNA or protein) (fraction of control) [3]: 0.62 |
| AAACAAAATGGGACCCCTTA |  | 0.56 |  |
| AAAGTGGTTATTCAGTCA |  |  | remaining target (mRNA or protein) (fraction of control) [3]: 0.71 |
| AACCACCAAACCTGCCCA | 0.42 |  |  |
| AAGCCAACGATGACCCTA | 0.2 |  |  |
| AAGTGGTTATTCAGTCAG |  |  | remaining target (mRNA or protein) (fraction of control) [3]: 0.74 |
| AAGTTTCACCTCTGCATTCT |  | 0.26 |  |
| AATAAAACCAACGGCATGTT |  | 0.81 |  |
| ACCTCCTGAAGAGTTAGC |  |  | remaining target (mRNA or protein) (fraction of control) [3]: 0.58 |
| ACTCATCTTGAACACATA | ≥ 1 |  |  |
| ACTTCCTCCTCTTCTTCCTC |  | 0.41 |  |
| AGAACTGGTCTTTCCTTC | 0.92 |  |  |
| AGACCCGGGCTGGGATCCTG |  | 0.92 |  |
| AGAGGGCCGCTGCATGTAAT |  | 0.36 |  |
| AGAGTAGACTCACCAGGCAC |  | 0.75 |  |
| AGCTGTCAATGTCACTAA |  |  | remaining target (mRNA or protein) (fraction of control) [3]: 0.43 |
| AGGGTTGCTCATAGTTGC | 0.61 |  |  |
| AGGTGGCATCTGGGTTCTCA |  | 0.46 |  |
| AGTGGTTATTCAGTCAGT |  |  | remaining target (mRNA or protein) (fraction of control) [3]: 0.67 |
| ATCGGCTCGGGTCGGTCA | 0.38 |  |  |
| ATGATGATGAAGCCGAAT |  |  | remaining target (mRNA or protein) (fraction of control) [3]: 0.93 |

| Sequence | remaining target (mRNA or protein) (fraction of control) [2] | remaining target (mRNA or protein) (fraction of control) [4] | other results |
| --- | --- | --- | --- |
| ATGCCAACAGGAGCAGTT |  |  | remaining target (mRNA or protein) (fraction of control) [3]: 0.51 |
| ATGTAAGCGATCCAGTCTTC |  | 0.67 |  |
| ATGTCGACCCTTATAGACTT |  | 0.39 |  |
| ATTCTCTTTCTTCTTGGG | 0.71 |  |  |
| CACACAGAATCTCAGAGTTA |  | 0.61 |  |
| CACCACAGATGTCACTGTTG |  | 0.45 |  |
| CACTGCATTTTCCAGGCGCT |  | 0.49 |  |
| CAGCAATATTTCCGTGTT | 0.88 |  |  |
| CAGTTACAAGGAATTCCAAG |  | 0.93 |  |
| CATCCCACTCATCTTGAA | ≥ 1 |  |  |
| CATGATGATGAAGCCGAA |  |  | remaining target (mRNA or protein) (fraction of control) [3]: 0.7 |
| CATTTACTATAGACTTTG | 0.79 |  |  |
| CCAACATGCAAGATGCTA | 0.83 |  |  |
| CCAAGTTGGTCAGGACAT | ≥ 1 |  |  |
| CCATCCAAGTGACCAGTTTC |  | 0.29 |  |
| CCCTAAATTTCCTTGGTT | 0.82 |  |  |
| CCGCTTCTGTCTCTCTGCCA |  | 0.25 |  |
| CCTCATCTTCATAGCACACC |  | 0.82 |  |
| CCTCTCCTCTTCTTCTTTGC |  | 0.64 |  |
| CCTGCCTGGCTATTCTGCTG |  | 0.43 |  |
| CCTGCTGCAGTCTCAGGAAA |  | 0.37 |  |
| CCTTGACTACTTGATGAG |  |  | remaining target (mRNA or protein) (fraction of control) [3]: 0.77 |
| CCTTGATATCCCGGTGAATC |  | 0.23 |  |

| Sequence | remaining target (mRNA or protein) (fraction of control) [2] | remaining target (mRNA or protein) (fraction of control) [4] | other results |
| --- | --- | --- | --- |
| CCTTTAAAAGTGGTTATT |  |  | remaining target (mRNA or protein) (fraction of control) [3]: ≥ 1 |
| CGAATTCCACCACACTGG |  |  | remaining target (mRNA or protein) (fraction of control) [3]: 0.69 |
| CTACGACCTGAAGAATGG |  |  | remaining target (mRNA or protein) (fraction of control) [3]: 0.76 |
| CTATTAATTTTGTGTTAC | ≥ 1 |  |  |
| CTCTGCAGGGCGGGATGCAC |  | ≥ 1 |  |
| CTCTGTGAAATTCGCAGT | ≥ 1 |  |  |
| CTCTTGTTCCATTCTCTT |  |  | remaining target (mRNA or protein) (fraction of control) [3]: 0.61 |
| CTGAAAGTCTGTCATTGT |  |  | remaining target (mRNA or protein) (fraction of control) [3]: 0.95 |
| CTGAGGACTGGAGAACTG |  |  | remaining target (mRNA or protein) (fraction of control) [3]: 0.44 |
| CTGAGGATTGATTCCAGT |  |  | remaining target (mRNA or protein) (fraction of control) [3]: 0.67 |
| CTGCGCATGGAACTTCTG | 0.45 |  |  |
| CTGGCTTCAGCAGTGTCA | 0.72 |  |  |
| CTGTCAACATTTACTTGG | ≥ 1 |  |  |
| CTTCCTCACTAAATCTTC |  |  | remaining target (mRNA or protein) (fraction of control) [3]: ≥ 1 |
| CTTCCTCTTCATCCTCAGTG |  | 0.34 |  |
| CTTTAAAAGTGGTTATTC |  |  | remaining target (mRNA or protein) (fraction of control) [3]: ≥ 1 |
| GAACCATCTGCACATGATTT |  | 0.48 |  |
| GAAGCATATGTAAAGATA | ≥ 1 |  |  |
| GACATAATCTGATCCTCC |  |  | remaining target (mRNA or protein) (fraction of control) [5]: ≥ 1 |
| GACGCCACCCTGGGAACC | 0.74 |  |  |
| GACTGAGTCTGGCGGACGAT |  | 0.84 |  |
| GACTTGGATGATGATCTCAC |  | 0.86 |  |
| GAGAGACAGCGAAGCACT | 0.29 |  |  |
